Key:
AKT = tested on: AKT; design: method as in BinidngDB; conditions: inhibitor of PDB ID 4GV1; ref BinidngDB; cited from earlier work
EGFR [1] = tested on: EGFR; design: method as in BinidngDB; conditions: inhibitor of PDB ID 5UGB; ref BinidngDB; cited from earlier work
DLD-1 cells = test: MTT viability assay, DLD-1 cells; assay type: cell-based; conditions: Homo sapiens, range 0.5–100 µM, read-out: IC50, cytotoxicity
Procedure: (§1) The DLD-1 and HCT116 colorectal carcinoma cell lines were purchased from ECACC. The HaCaT cell line of spontaneously immortalized keratinocytes was purchased from Cell Lines Service (Germany). The cells were cultured in Dulbecco’s Modified Eagle’s Medium (DMEM, Sigma-Aldrich, USA) with the addition of 10% FBS (EURx, Poland) and 1% antibiotic solution (penicillin and streptomycin) (Sigma-Aldrich, USA) at 37 °C in an atmosphere with 95% humidity and 5% CO2.
(§2) The effect of the tested compounds on the viability of DLD-1, HCT116 and HaCaT cells was assessed by the MTT assay according to the standard protocol.

HCT116 cells = test: MTT viability assay, HCT116 cells; assay type: cell-based; conditions: Homo sapiens, HCT-116, range 0.5–100 µM, read-out: IC50, cytotoxicity
Procedure: as §1, §2

[2] = MTT viability assay, normal HaCaT cells; assay type: cell-based; conditions: HaCaT cells (spontaneously immortalized keratinocytes), normal human HaCaT cells, read-out: IC50, cytotoxicity
Procedure: as §1, §2

NF-κB p65 [3] = test: Transcription factor ELISA, NF-κB p65 binding to DNA; assay type: cell-based; conditions: DLD-1 cells (context); 1, 4 at 1 μM; 2, 8 at 5 μM; vs control
Procedure: (§3) To estimate NF-ΚB (p50 and p65 subunits) STAT3 and Nrf2 activation, enzymatic immunoassays with the Transcription Factor ELISA Kit (TransAM™NF-κB, TransAM™STAT3/TransAM™Nrf2, Active Motif, Carlsbad CA, USA) were used following the manufacturer’s protocol. Briefly, proper consensus-site double-strand oligonucleotides (NF-κB—5′-GGGACTTTCC-3′; STAT3-5’—TTCCCGGAA-3’; Nrf2-5ʹ—[…]-3ʹ) were immobilized on an ELISA plate and incubated for one hour with the nuclear extracts. The activated subunits bound to DNA were recognized with a specific primary antibody and detected with an HRP-conjugated secondary antibody. The number of subunits was determined by spectrophotometry at λ = 450 nm. The number of p50, and p65 subunits, STAT3, as well as the amount of Nrf2 contained in the DNA-binding complex, corresponded to the activated NF-κB, STAT3, or Nrf2 transcription factors.

Nrf2 = test: Transcription factor ELISA, Nrf2 binding to DNA; assay type: cell-based
Procedure: as §3

NF-κB p65 [4] = test: qRT-PCR, NF-κB p65 mRNA; assay type: cell-based; conditions: for inhibitory effect on p65 subunit transcription: DLD-1 cells, 5 μM
Procedure: (§4) Total RNA from cells was isolated with the GeneMatrix Universal DNA/RNA/Protein Purification Kit (EurX, Poland). For the qRT-PCR analyses, the Maxima SYBR Green I/ROX qPCR Master Mix (2×) (Thermo Fisher Scientific, USA) and the thermal cycler LightCycler (Roche, Germany) were used. The protocol started with 5 min of enzyme activation at 95 °C, followed by 40–50 cycles at 95 °C for 15 s, 56 °C for 20 s, 72 °C for 40 s, and final elongation at 72 °C for 5 min. Melting curve analysis was used for amplicon verification. The expression levels of TATA-box-binding protein (TBP) and porphobilinogen deaminase (PBGD) were used to normalize the data. The Pfaffl comparative method was used to calculate fold change. Primers were designed using Beacon Designer software (the sequences of primers used to analyze genes are listed in Table 2 of the supplementary materials).

COX-2 = COX-2 expression (qRT-PCR mRNA, Western blot protein); assay type: cell-based; conditions: 4 at 1 μM; for COX-2 transcription: DLD-1 cells, 3, 6 at 5 μM
Procedure: (§5) Cytosolic and nuclear extracts were prepared using a Nuclear/Cytosol Fractionation Kit (BioVision Research, USA). Cytosolic extracts (for NF-κBp65, NF-κBp50, COX-2, iNOS, STAT3, c-Myc, Bcl-xl, Nrf2, SOD, GSTP, EGFR, Akt, p-Akt, Keap1, IKKα/β and β-actin) or nuclear extracts (for NF-κBp65, NF-κBp50, STAT3, p-STAT3, Nrf2, p-Nrf2 and lamin) were separated on 7.5%, 10% or 12% SDS–PAGE slab gels. Then, the proteins were transferred to a nitrocellulose Immobilon-P membrane. After blocking for 2 h with 10% skimmed milk, proteins were incubated with primary antibodies against NF-κBp65, NF-κBp50, COX-2, iNOS, STAT3, p-STAT3, c-Myc, Bcl-xl, Nrf2, p-Nrf2, SOD, GSTP, EGFR, Akt, p-Akt, Keap1, IKKα/β, β-actin, and lamin. Alkaline phosphatase (AP)-labeled anti-rabbit IgG, anti-goat IgG, and anti-mouse IgG secondary antibodies (Bio-Rad Laboratories, USA), as well as horseradish peroxidase (HRP)-conjugated anti-mouse IgG (Boster Bio, USA) secondary antibodies were used in the staining reaction. Bands were visualized by the AP Conjugate Substrate Kit NBT/BCIP or the chemiluminescent HRP substrate of the Clarity ECL Kit (Bio–Rad Laboratories, USA). The amount of immunoreactive product in each lane was determined using a ChemiDoc Imaging System (Bio–Rad Laboratories, USA). Values were calculated as relative absorbance units (RQ) per mg of protein and expressed as a percentage of the control.
as §4

STAT3 [5] = test: Western blot, STAT3 protein level; assay type: cell-based; conditions: DLD-1 cells; 2 at 5 μM, 4 at 1 μM
Procedure: as §5

STAT3 [6] = test: Transcription factor ELISA, STAT3 binding to DNA; assay type: cell-based; conditions: 2, 5 at 5 μM, 4 at 1 μM
Procedure: as §3

STAT3 [7] = test: qRT-PCR, STAT3 mRNA; assay type: cell-based; conditions: DLD-1 cells; 2, 5 at 5 μM, 4 at 1 μM
Procedure: as §4

Bcl-xl = Bcl-xl expression (qRT-PCR mRNA, Western blot protein); assay type: cell-based; conditions: DLD-1 cells; 2 at 5 μM
Procedure: as §5, §4

c-Myc = c-Myc expression (qRT-PCR mRNA, Western blot protein); assay type: cell-based; conditions: DLD-1 cells; 2 at 5 μM
Procedure: as §5, with “control. […]” for “control.”

EGFR [8] = test: Western blot, EGFR protein in cytosolic fraction; assay type: cell-based; conditions: DLD-1 cells; 2, 5 at 5 μM, 4 at 1 μM
Procedure: as §5

p-Akt = test: Western blot, p-Akt (Ser 473) protein in cytosolic fraction; assay type: cell-based; conditions: 2, 5 at 5 μM, 4 at 1 μM
Procedure: as §5

p-Nrf2 = test: Western blot, p-Nrf2 protein in nuclear fraction; assay type: cell-based; conditions: HCT116 line; 5 μM
Procedure: as §5

SOD = SOD expression (qRT-PCR mRNA, Western blot protein); assay type: cell-based; conditions: HCT116 cells; 5 μM
Procedure: as §5
as §4, with “Primers were designed using Beacon Designer software (the sequences of primers used to analyze genes are listed in Table 2 of the supplementary materials).” left out

NF-κB p50 = test: Transcription factor ELISA, NF-κB p50 binding to DNA; assay type: cell-based; conditions: DLD-1 cells; 1, 4 at 1 μM; 2, 3, 5-8 at 5 μM; in relation to the control group
Procedure: as §3

[9] = DLD-1 cells, 1 at 1 μM, 3, 5, 7, 8 at 5 μM
[10] = HCT116 cells, 4 at 1 μM, 2, 5, 6, 7 at 5 μM

SMILES	Nrf2 binding to a specific nucleotide sequence (ELISA) (Nrf2; [9])	Nrf2 binding to a specific nucleotide sequence (ELISA) (Nrf2; [10])	IC50 (DLD-1 cells)	IC50 (HCT116 cells)	IC50 [2]	reduction of the binding of the p65 subunit to DNA (NF-κB p65 [3])	other results
NC1(C(=O)N[C@@H](CCO)c2ccc(Cl)cc2)CCN(c2ncnc3[nH]ccc23)CC1 [AZD5363]	–	–	–	–	–	–	IC50 (AKT): 0.0042 µM
COc1cc(C(=O)/C=C/c2ccc(SC)cc2)cc(Br)c1SC [chalcone 7]	statistically significant increase	statistically significant increase	43 µM	19 µM	27 µM	–	decrease of p50 binding to the 5'-GGGACTTTCC-3' target sequence (NF-κB p50): 41%; inhibitory effect on p65 subunit transcription (NF-κB p65 [4]): most potent inhibitory effect; increase in the nuclear level of p-Nrf2 (p-Nrf2): 80%; levels of SOD mRNA and protein (SOD): increased levels of SOD mRNA and protein

The next lines start with results.

Nrf2 binding to a specific nucleotide sequence (ELISA) (Nrf2; [9])	Nrf2 binding to a specific nucleotide sequence (ELISA) (Nrf2; [10])	SMILES	IC50 (DLD-1 cells)	IC50 (HCT116 cells)	IC50 [2]	reduction of the binding of the p65 subunit to DNA (NF-κB p65 [3])	other results
statistically significant increase	–	COc1ccc(/C=C/C(=O)c2cc(OC)c(OC)c(OC)c2)cc1SC [chalcone 1]	3 µM	19 µM	4 µM	21%	–
–	statistically significant increase	COc1cc(/C=C/C(=O)c2cc(Br)c(OC)c(OC)c2)ccc1SC [chalcone 2]	11 µM	18 µM	13 µM	24%	inhibitory effect on p65 subunit transcription (NF-κB p65 [4]): most potent inhibitory effect; COX-2 expression, protein level (COX-2; HCT116 cells, 2 at 5 μM): reduction of COX-2 expression; COX-2 expression, transcript level (COX-2; HCT116 cells, 2 at 5 μM): reduction of COX-2 expression; decrease in the nuclear level of STAT3 protein (STAT3 [5]): 22%; binding of STAT3 to DNA (STAT3 [6]; HCT116 cells): decreased the binding of STAT3 to DNA; decrease in the binding of STAT3 to DNA (STAT3 [6]; nuclear fraction of DLD-1 cells): 25%; STAT3 gene expression (mRNA) (STAT3 [7]): decreased; Bcl-xl protein level (Bcl-xl): reduced level of the Bcl-xl protein; decrease in the level of Bcl-xl mRNA (Bcl-xl): 25%; c-Myc expression (c-Myc): decreased c-Myc expression; level of EGFR (EGFR [8]): significantly decreased the level of EGFR; phosphorylation of p-Akt (Ser 473) (p-Akt; DLD-1 cells): significantly reduced phosphorylation of p-Akt; phosphorylation of p-Akt (Ser 473) (p-Akt; HCT116 cells): significantly reduced phosphorylation of p-Akt
statistically significant increase	–	COc1ccc(/C=C/C(=O)c2cc(Br)c(OC)c(OC)c2)cc1SC [chalcone 3]	8 µM	17 µM	9 µM	–	COX-2 transcription (COX-2): statistically significant reduction
–	statistically significant increase	COc1ccc(/C=C/C(=O)c2cc(Br)c(SC)c(OC)c2)cc1SC [chalcone 6]	12 µM	21 µM	13 µM	–	COX-2 transcription (COX-2): statistically significant reduction; increase in the nuclear level of p-Nrf2 (p-Nrf2): 52%; levels of SOD mRNA and protein (SOD): increased levels of SOD mRNA and protein
statistically significant increase	–	COc1ccc(/C=C/C(=O)c2cc(OC)c(SC)c(OC)c2)cc1SC [chalcone 8]	9 µM	19 µM	17 µM	38%	decrease of p65 transcription (NF-κB p65 [4]; HCT116 cells, 8 at 5 μM, compared to the control group): 30%
